From patent US5281626A, “Benzenesulfonamide derivatives” (Eisai Co., Ltd., priority 1990, dated 1994)

Columns and labels:
[1] = tested on: phospholipase A2 (PLA2) contained in the membrane fraction of rabbit heart; assay: Inhibitory activity against phospholipase A2 (PLA2) contained in the membrane fraction of rabbit heart; assay type: biochemical; conditions: CaCl2 added, 37° C., 30 minutes
Experimental: (§1) A. Inhibitory activity against phospholipase A2 (PLA2) contained in the membrane fraction of rabbit heart or the supernatant fraction thereof (method) An NZW male rabbit was anesthetized by the intravenous administration of pentobarbital sodium to take out its heart. This heart was washed with ice cooled physiological saline to recover a ventricle, followed by the addition of ice-cooled 0.25M sucrose/20 mM tris hydrochloride buffer (pH: 8.0) in an amount of 5 ml per g of the ventricle. The obtained mixture was mashed with a homogenizer in ice water for 30 minutes and centrifuged at 1,000 g for 10 min. The supernatant was further centrifuged at 105,000 g for 60 min. The centrifugation was conducted at 0° to 4° C. The obtained supernatant was used as such as the supernatant fraction for examination. The precipitate was suspended in the same buffer as that described above and used as the membrane fraction for examination. The protein concentrations of these fractions were each adjusted to 5 mg/ml as determined by Lowry method. […] The test tubes of the membrane fraction were kept at 37° C. for 30 minutes for incubation, while those of the supernatant fraction were kept at 37° C. for 5 minutes for incubation. Each incubation was stopped by the addition of 1 ml of Dole reagent. […] The amount of ^14 C was determined with a liquid scintillation counter. Mepacrine was selected as a comparative compound. (Results)

[2] = tested on: phospholipase A2 (PLA2) contained in the supernatant fraction of rabbit heart; assay: Inhibitory activity against phospholipase A2 (PLA2) contained in the supernatant fraction of rabbit heart; assay type: biochemical; conditions: EGTA added, 37° C., 5 minutes
Experimental: as §1

| Structure (SMILES) | PLA2 -inhibitory activity IC30, membrane fraction [1] [µM] | PLA2 -inhibitory activity IC30, supernatant fraction [2] [µM] |
| --- | --- | --- |
| CN(C(=O)/C=C/c1ccc(O)c(O)c1)c1ccc(S(=O)(=O)NC2CCCCC2)cc1 [Example 58, N-cyclohexyl-4-{N-methyl-N-[(E)-3-(3,4-dihydroxyphenyl)-2-propenoyl]amino}benzenesulfonamide] | 1.5 | 64 |
| CN(C(=O)/C=C/c1ccc(C#N)cc1)c1ccc(S(=O)(=O)NC2CCCCCC2)cc1 [Example 25, N-cycloheptyl-4-{N-methyl-N-[(E)-3-(4-cyanophenyl)-2-propenoyl]amino}benzenesulfonamide] | 0.16 | 68 |
| CN(C(=O)/C=C/c1ccc(S(C)(=O)=O)cc1)c1ccc(S(=O)(=O)N2CCCN(Cc3ccccc3)CC2)cc1 [Example 21, (E)-N-methyl-N-[4-(4-benzyl-1-homopiperazinyl)sulfonylphenyl]-3-(4-methylsulfonylphenyl)-2-propenamide] | 0.055 | > 100 |
| CN(C(=O)/C=C/c1ccc(O)c(F)c1)c1ccc(S(=O)(=O)NC2CCCCCC2)cc1 [Example 43] | 3.49 | 62 |
| CN(C(=O)/C=C/c1ccc(O)c(F)c1)c1ccc(S(=O)(=O)NC2CCCCCCC2)cc1 [Example 87, N-cyclooctyl-4-{N-methyl-N-[(E)-3-(3-fluoro-4-hydroxyphenyl)-2-propenoyl]amino}benzenesulfonamide] | 2.1 | – |
| COc1ccc(CCN2CCC(NS(=O)(=O)c3ccc(N(C)C(=O)/C=C/c4ccc(S(C)(=O)=O)cc4)cc3)CC2)cc1OC [Example 79] | 0.03 | > 100 |
| Cc1cccc(CCN2CCC(NS(=O)(=O)c3ccc(N(C)C(=O)/C=C/c4ccc(S(C)(=O)=O)cc4)cc3)CC2)n1 [Example 81, N-[1-(2-(6-methyl-2-pyridyl)ethyl]-4-piperidyl-4-{N-methyl-N-(E)-3-(4-methylsulfonylphenyl)-2-propenoyl]amino}benzenesulfonamide] | 0.044 | > 100 |
| CN(C(=O)/C=C/c1ccc(O)cc1)c1ccc(S(=O)(=O)NC2Cc3ccccc3C2)cc1 [Example 41, N-(2-indanyl)-4-{N-methyl-N-[(E)-3-(4-dihydroxyphenyl)-2-propenoyl]amino}benzenesulfonamide] | 0.98 | 46 |
| CN(C(=O)/C=C/c1ccc(S(C)(=O)=O)cc1)c1ccc(S(=O)(=O)N2CCN(CCc3ccccc3)CC2)cc1 [Example 22, (E)-N methyl-N-{4-[4-(2-phenylethyl)-piperazinyl]sulfonylphenyl}-3-(4-methylsulfonylphenyl)-2-propenamide] | 0.050 | > 100 |
| CN(C(=O)/C=C/c1ccc(C#N)cc1)c1ccc(S(=O)(=O)NC2CCN(Cc3ccccc3)CC2)cc1 [Example 26, N-(1-benzyl-4-piperidyl)-4-{N-methyl-N-[(E)-3-(4-cyanophenyl)-2-propenoyl]amino}benzenesulfonamide] | 0.24 | 59 |
| CN(C(=O)/C=C/c1ccc(S(C)(=O)=O)cc1)c1ccc(S(=O)(=O)NC2CCCCN(Cc3ccccc3)C2)cc1 (racemic) [Example 9, (±)-[1-benzyl-3-hexamethyleneimino]-4-{N-methyl N-[(E)-N-3-(4-methylsulfonylphenyl)-2-propenoyl]amino)benzenesulfonamide] | 0.015 | 61 |
| CN(C(=O)/C=C/c1ccc(O)c(O)c1)c1ccc(S(N)(=O)=O)cc1 [Example 65, 4-{N-methyl-N-[(E)-3-(3,4-dihydroxyphenyl)-2-propenoyl]amino}benzenesulfonamide] | 16 | – |
| COc1ccc(/C(=C/C(=O)Nc2ccc(S(N)(=O)=O)cc2)c2cccnc2)cc1OC [Example 72] | 41 | – |
| CN(C(=O)/C=C/c1ccc(S(C)(=O)=O)cc1)c1ccc(S(=O)(=O)N2CCCN(CC3CCCCC3)CC2)cc1 [Example 20, (E)-N-methyl-N-[4-(4-cyclohexylmethyl-1-homopiperazinyl)sulfonylphenyl]-3 (4 methylsulfonylphenyl)-2-propenamide] | 0.045 | 92 |
| CN(C(=O)/C=C/c1ccc(O)cc1)c1ccc(S(=O)(=O)NC2CCCCCC2)cc1 [Example 86, N-cycloheptyl-4-{N-methyl-N-[(E)-3-(4-hydroxyphenyl)-2-propenoyl]amino}benzenesulfonamide] | 0.62 | 46 |
| CN(C(=O)/C=C/c1ccc(OC(=O)CN)c(OC(=O)CN)c1)c1ccc(S(=O)(=O)NC2Cc3ccccc3C2)cc1 [Example 3, N-(2-indanyl)-4-{N-methyl-N-[(E)-3-[3,4-diglycyloxyphenyl)-2-propenoyl]amino}benzenesulfonamide] | 2.4 | – |
| CN(C(=O)/C=C/c1ccc([N+](=O)[O-])cc1)c1ccc(S(=O)(=O)NC2CCCCCC2)cc1 [Example 38, N-cycloheptyl-4-{N-methyl-N-[(E)-3-(4-nitrophenyl)-2-propenoyl]amino}benzenesulfonamide] | 0.12 | 29 |
| CN(C(=O)/C=C/c1ccc(S(C)(=O)=O)cc1)c1ccc(S(=O)(=O)NC2CCCCCC2)cc1 [Example 14, N-pycloheptyl-4-(N-methyl-N-[(E)-3-(4-methylsulfonylphenyl)-2-propenoyl]amino}benzenesulfonamide] | 0.016 | > 30 |
| CCN(CC)CCCC(C)Nc1c2ccc(Cl)cc2nc2ccc(OC)cc12 (stereo not shown) [mepacrine, reference compound] | > 100 | > 100 |
| CN(C(=O)/C=C/C=C/c1ccc(O)c(O)c1)c1ccc(S(=O)(=O)NC2CCCCCC2)cc1 [Example 50, N-cycloheptyl-4-{N-methyl N-[(2E, 4E)-5-(3,4-dihydroxyphenyl)-2,4-pentadienoyl]amino}benzenesulfonamide] | 1.05 | 38 |
| CN(C(=O)/C=C/c1ccc(O)c(O)c1)c1ccc(S(=O)(=O)NC2CCCCCC2)cc1 [Example 49, N-cycloheptyl-4-{N-methyl-N-[(E)-3-(3,4-dihydroxyphenyl)-2-propenoyl]amino}benzenesulfonamide] | 1.8 | 56 |
| CN(C(=O)/C=C/c1ccc(S(C)(=O)=O)cc1)c1ccc(S(=O)(=O)NC2CCN(CCc3ccccc3)CC2)cc1 [Example 5, N-[1-(2-phenylethyl)-4-piperidyl]-4-{N-methyl-N-[(E)-3-(4-methylsulfonylphenyl) -2-propenoyl]amino}benzenesulfonamide] | 0.007 | 49 |
| CN(C(=O)/C=C/C=C/c1cc(Br)c(O)c(Br)c1)c1ccc(S(=O)(=O)NC2CCCCCC2)cc1 [Example 44, N-cycloheptyl-4-{N-methyl-N-[(2E, 4E)-5-(3,5-dibromo-4-hydroxyphenyl) -2,4-pentadienoyl]amino}benzenesulfonamide] | 5.1 | 39 |
| CN(C(=O)/C=C/c1ccc(-n2ccnc2)cc1)c1ccc(S(=O)(=O)NC2CCCCCCC2)cc1 [Example 30, N-cyclooctyl-4-{N-methyl-N-[(E)-3-[4-(1-imidazolyl)phenyl]-2-propenoyl]amino}benzenesulfonamide] | 0.66 | > 100 |
| NS(=O)(=O)c1ccc(NC(=O)/C=C/c2ccc(O)c(O)c2)cc1 [Example 77] | 20 | > 100 |
| CN(C(=O)/C=C/C=C/c1ccc(O)c(O)c1)c1ccc(S(=O)(=O)NC2CCc3ccccc3C2)cc1 (stereo not shown) [Example 48] | 1.7 | 32 |
| CN(C(=O)/C=C/c1ccc(-n2ccnc2)cc1)c1ccc(S(=O)(=O)N[C@@H]2C[C@H]3CC[C@@H]2C3)cc1 (relative stereo) [Example 31, (±)-N-(exo-2-norbornyl)-4-{N-methyl-N-[(E)-3-[4-(1-imidazolyl)phenyl]-2-propenoyl]amino}benzenesulfonamide] | 0.42 | 29 |
| CN(C(=O)/C=C/c1ccc(S(C)(=O)=O)cc1)c1ccc(S(=O)(=O)NCCc2ccccn2)cc1 [Example 18, N-[2-(2-pyridyl)ethyl]-4-{N-methyl-N-[(E)-3-(4-methylsulfonylphenyl) -2-propenoyl]amino}benzenesulfonamide] | 0.18 | > 100 |
